Among the data in patent US20120157466A1, “HETEROCYCLIC COMPOUNDS WITH CXCR3 ANTAGONIST ACTIVITY” (priority 2007, published 2012) are IC50 values, retold here.

Read-outs that look alike come from different tables or passages of the source.

The assay deals with T1, human CXCR3 (N-delta 4) (Homo sapiens, UniProt P49682).
T1 construct: CD8 leader (N); Flag tag; expressed in transfected cells; membrane preparation
T1 sequence (P49682 5-368 limits assumed): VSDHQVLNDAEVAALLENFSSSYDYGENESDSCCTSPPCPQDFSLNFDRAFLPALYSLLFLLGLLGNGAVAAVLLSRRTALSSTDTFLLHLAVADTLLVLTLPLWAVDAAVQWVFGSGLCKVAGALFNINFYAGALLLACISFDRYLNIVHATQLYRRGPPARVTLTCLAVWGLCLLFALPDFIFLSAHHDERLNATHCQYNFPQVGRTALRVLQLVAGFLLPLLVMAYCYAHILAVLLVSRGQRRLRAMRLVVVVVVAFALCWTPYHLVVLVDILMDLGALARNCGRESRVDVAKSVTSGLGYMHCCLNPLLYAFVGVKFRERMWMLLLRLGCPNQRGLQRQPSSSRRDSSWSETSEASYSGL
The assay can be described thus: Human CXCR3 (N-delta 4) Scintillation Proximity Assay (SPA), [125I] IP-10 binding. The source says:
The inventive compounds can readily be evaluated to determine activity at The CXCR3 receptors by known methods, such as, for example, Development of Human CXCR3 (N-delta 4) Binding Assay.
Cloning and Expression of Human CXCR3 (N-delta 4):
The DNA encoding human CXCR3 was cloned by PCR using human genomic DNA (Promega, Madison, Wis.) as a template. The PCR primers were designed based on the published sequence of human orphan receptor GPR9 (1) with incorporated restriction sites, a Kozak consensus sequence, CD8 leader and Flag tag. The PCR product was subcloned into the mammalian expression vector pME18Sneo, a derivative of the SR-alpha expression vector (designated as pME18Sneo-hCXCR3 (N-delta 4).
IL-3-dependent mouse pro-B cells Ba/F3 were transfected by electroporation in 0.4 ml Dulbecco's PBS containing 4×10^6 cells with 20 μg of pME18Sneo-hCXCR3 (N-delta 4) plasmid DNA. Cells were pulsed at 400 Volts, 100 OHMs, 960 μFd. The transfected cells were under selection with 1 mg/ml G418 (Life Technologies, Gaithersburg, Md.). G418-resistant Ba/F3 clones were screened for CXCR3 expression by specific binding of [^125I] IP-10 (NEN Life Science Products, Boston, Mass.).
Preparation of Ba/F3-hCXCR3 (N-delta 4) Membranes
Ba/F3 cells expressing human CXCR3 (N-delta 4) were pelleted and resuspended in the lysis buffer containing 10 mM HEPES, pH 7.5 and Complete protease inhibitors (1 tablet per 100 ml) (Boehringer Mannheim, Indianapolis, Ind.) at a cell density of 20×10^6 cells per ml. After 5 minutes incubation on ice, cells were transferred to 4639 cell disruption bomb (Parr Instrument, Moline, Ill.) and applied with 1,500 psi of nitrogen for 30 minutes on ice. Large cellular debris was removed by centrifugation at 1,000×g. Cell membrane in the supernatant was sedimented at 100,000×g. The membrane was resuspended in the lysis buffer supplemented with 10% sucrose and stored at −80° C. Total protein concentration of the membrane was determined by BCA method from Pierce (Rockford, Ill.).
Human CXCR3 (N-delta 4) Scintillation Proximity Assay (SPA)
For each assay point, 2 μg of membrane was preincubated for 1 hr with 300 μg wheat germ agglutinin (WGA) coated SPA beads (Amersham, Arlington Heights, Ill.) in the binding buffer (50 mM HEPES, 1 mM CaCl2, 5 mM MgCl2, 125 mM NaCl, 0.002% NaN3, 1.0% BSA) at room temperature. The beads were spun down, washed once, resuspended in the binding buffer and transferred to a 96-well Isoplate (Wallac, Gaithersburg, Md.). 25 pM of [^125I] IP-10 with tested compounds in a series of titration were added to start the reaction. After 3 hr reaction at room temperature, the amount of [^125I] IP-10 bound to the SPA beads was determined with a Wallac 1450 Microbeta counter.
A general note: SPA uses beads or plates that emit light when radiolabelled molecules are held near them.

[1] abbreviates: human CXCR3, Ba/F3-hCXCR3 (N-delta 4) membranes, 25 pM [125I] IP-10, read-out: IC50 rating (human).
The mark [2] stands for this setting: numerical IC50 values of representative compounds, read-out: IC50.

As a reminder, the IC50 is the midpoint of a concentration-inhibition curve. `CC[C@H]1CN(c2nc3ncccc3c(=O)n2C2CC2)CCN1C1CCN(Cc2ccc(OC(F)(F)F)cc2)CC1` [Compound 13]: the IC50 was < 25 nM under setting [1] and 2.8 nM under setting [2].
The matching figures for `CC[C@H]1CN(c2nc3ncccc3c(=O)n2C2CC2)CCN1C1CCN(Cc2ccc(Cl)c(F)c2)CC1` [Compound 15]: < 25 nM and 1.8 nM.
In the case of `C[C@H]1CN(c2nccc(C(F)(F)F)n2)CCN1C1CCN(Cc2ccc(Cl)cc2)CC1` [Compound 5], under setting [1], the IC50 was > 100 nM.
On to `CC[C@H]1CN(c2nc3ncccc3c(=O)n2C)CCN1C1CCN(C(=O)c2ccc(Cl)nc2N)CC1` [Compound 19], for which, under setting [1], the IC50 is > 100 nM.
Same read-out and setting: to `CC[C@H]1CN(c2nc3ncccc3c(=O)n2C)CCN1C1CCN(C(=O)c2ccc(Cl)cc2)CC1` [Compound 9] belongs 25 to 100 nM.
Turning to `CC[C@H]1CN(c2nc3ncccc3c(=O)n2C)CCN1C1CCN(Cc2ccc(Cl)cc2)CC1` [Compound 21], under setting [1], the IC50 was < 25 nM.
Turning to `CC[C@H]1CN(c2nc3ncccc3c(=O)n2C2CC2)CCN1C1CCN(Cc2ccc(F)c(F)c2)CC1` [Compound 16], under setting [1], the IC50 is < 25 nM.
The same measure, in the same setting: then `CC[C@H]1CN(c2nc3ncccc3c(=O)n2C2CC2)CCN1C1CCN(Cc2ccc(C#N)cc2)CC1` [Compound 18], with < 25 nM.
The same measure, in the same setting: then `CC[C@H]1CN(c2nc3ncccc3c(=O)n2C)CCN1C1CCN(Cc2ccc(OC(F)(F)F)cc2)CC1` [Compound 22], with < 25 nM.
Same read-out and setting: to `CC[C@H]1CN(c2nc(Cl)c3nc[nH]c3n2)CCN1C1CCN(Cc2ccc(Cl)cc2F)CC1` [Compound 7] belongs > 100 nM.
With `CC[C@H]1CN(c2nc3ncccc3c(=O)n2C2CC2)CCN1C1CCN(Cc2ccc(C(F)(F)F)cc2)CC1` [Compound 14], the IC50 is, setting by setting: under setting [1], < 25 nM; under setting [2], 5.6 nM.
On to `CC[C@H]1CN(c2nc3ccccc3n2C)CCN1C1CCN(Cc2ccc(Cl)cc2F)CC1` [Compound 10], for which the IC50 under setting [1] was > 100 nM.
With `O=C(NCc1ccc(F)c(F)c1)c1cnc(N2CCN(C3CCN(C(=O)c4ccc(Cl)cc4)CC3)CC2)nc1C(F)(F)F` [Compound 3], the IC50 under setting [1] was > 100 nM.
Same read-out and setting: to `CC[C@H]1CN(c2nc3ncccc3c(=O)n2C2CC2)CCN1C1CCN(C(=O)c2ccc(Cl)nc2N)CC1` [Compound 20] belongs 25 to 100 nM.
Consider `O=C(NCc1ccc(F)c(F)c1)c1cnc(N2CCN(C3CCN(Cc4ccc(Cl)cc4)CC3)CC2)nc1C(F)(F)F` [Compound 2], for which the IC50 under setting [1] is > 100 nM.
Same read-out and setting: then `CC[C@H]1CN(c2nc3ncccc3c(=O)n2C)[C@H](C)CN1C1CCN(C(=O)c2ccc(Cl)cc2)CC1` [Compound 23], with > 100 nM.
For the compound `CC[C@H]1CN(c2nc3ncccc3c(=O)n2C2CC2)CCN1C1CCN(Cc2ccc(Cl)cc2)CC1` [Compound 12], the IC50 is < 25 nM under setting [1] and 1.9 nM under setting [2].
Regarding `CCNC(=O)c1cc(C)nc(N2CCN(C3CCN(Cc4ccc(Cl)cc4)CC3)[C@@H](CC)C2)n1` [Compound 8], the IC50 under setting [1] is > 100 nM.
Regarding `CC[C@H]1CN(c2nc3ncccc3c(=O)n2C2CC2)CCN1C1CCN(Cc2ccc(Cl)cc2F)CC1` [Compound 17], the IC50 is, setting by setting: under setting [1], < 25 nM; under setting [2], 2.5 nM.
`CC[C@H]1CN(c2nc3ncccc3c(=O)n2C2CC2)CCN1C1CCN(C(=O)c2ccc(Cl)cc2)CC1` [Compound 11]: the IC50 under setting [1] is 25 to 100 nM.
